Reference: PMC11129975, “A first-in-human phase I study of TAS-117, an allosteric AKT inhibitor, in patients with advanced solid tumors” (Cancer Chemotherapy and Pharmacology, 2024)

Assay: Phase I safety: adverse events, adverse drug reactions, DLTs in patients with advanced solid tumors
Format: in vivo, human
Conditions: for Adverse drug reactions: ALT increased / Adverse drug reactions: AST increased / Adverse drug reactions: Any events / Adverse drug reactions: Blood AP increased / Adverse drug reactions: Decreased appetite / Adverse drug reactions: Diarrhea / Adverse drug reactions: Dry skin / Adverse drug reactions: GGT increased / Adverse drug reactions: GI disorders / Adverse drug reactions: General disorders and administration site conditions / Adverse drug reactions: Hyperglycemia / Adverse drug reactions: Investigations / Adverse drug reactions: Metabolism and nutrition disorders / Adverse drug reactions: Nausea / Adverse drug reactions: Neutrophil count decreased / Adverse drug reactions: Pruritus / Adverse drug reactions: Pyrexia / Adverse drug reactions: Rash maculo-papular / Adverse drug reactions: Skin and SC tissue disorders / Adverse drug reactions: Stomatitis / Adverse drug reactions: Vomiting / Adverse drug reactions: WBC count decreased / Adverse events: ALT increased / Adverse events: AST increased / Adverse events: Any events / Adverse events: Blood AP increased / Adverse events: Decreased appetite / Adverse events: Diarrhea / Adverse events: Dry skin / Adverse events: GGT increased / Adverse events: GI disorders / Adverse events: General disorders and administration site conditions / Adverse events: Hyperglycemia / Adverse events: Investigations / Adverse events: Metabolism and nutrition disorders / Adverse events: Nausea / Adverse events: Neutrophil count decreased / Adverse events: Pruritus / Adverse events: Pyrexia / Adverse events: Rash maculo-papular / Adverse events: Skin and SC tissue disorders / Adverse events: Stomatitis / Adverse events: Vomiting / Adverse events: WBC count decreased: DEP n = 12
Text: This was a phase I, open-label, non-randomized, dose-escalating first-in-human study to evaluate the safety, pharmacokinetics, antitumor activity, pharmacodynamics, and pharmacogenomics of TAS-117 in patients with advanced solid tumors. The study had three phases: a dose escalation phase (DEP), a regimen modification phase (RMP), and a safety assessment phase (SAP). The treatment cycle on each regimen lasted 21 days. The DEP used an accelerated titration and 3 + 3 design. TAS-117 was administered orally once daily (QD) on an empty stomach (1 h before or 2 h after a meal). Dosing was determined based on a 4-week repeated oral-dose toxicology study in monkeys (data on file, Taiho Pharmaceutical Co., Ltd.); the highest non-severely toxic dose was 1.2 mg/kg/day, which was converted to 3.84 mg/body/day, or 2.4 mg/m^2. Therefore, the starting dose was determined to be ≤ 2.4 mg/m^2. At dose level 1, TAS-117 was administered at 2 mg QD (Day − 2), and the dose was increased to 4 mg QD after 2 days (Day 1). The RMP was conducted according to a 3 + 3 design. During this phase, the dose regimen was changed from QD administration to intermittent dosing of daily TAS-117 with 4 days on/3 days off. TAS-117 was administered on an empty stomach. Dose-limiting toxicities (DLTs) were evaluated in Cycle 1 of the DEP and RMP. […] The RD and regimen for the SAP were determined based on the safety, pharmacokinetics, pharmacodynamics, and antitumor activity profile determined in the DEP and RMP. During the SAP, the safety and preliminary efficacy profiles of TAS-117 were assessed at the RD and recommended regimen. Three cohorts were included in this assessment. Cohort 1 included patients with endometrial cancer with a PIK3CA mutation; cohort 2 included patients with endometrial cancer with an AKT1 mutation, AKT1 amplification, or AKT2 amplification; and cohort 3 included patients with ovarian clear cell carcinoma.
The primary endpoints were the proportion of patients who experienced DLTs in Cycle 1 of the DEP and RMP and the incidence of adverse events (AEs) and adverse drug reactions (ADRs) in the SAP. AEs and ADRs were coded using the Medical Dictionary for Regulatory Activities (MedDRA; version 24.1) and graded according to the National Cancer Institute Common Terminology Criteria for Adverse Events (CTCAE; version 4.03). Secondary endpoints were pharmacokinetic findings, changes in the ratio of phosphorylated PRAS40 (pPRAS40)/total PRAS40 from baseline, efficacy, and pharmacogenomics findings.

For `C[C@]1(O)C[C@@](N)(c2ccc(-c3nc4n(c3-c3ccccc3)COc3ccncc3-4)cc2)C1` [TAS-117], the “Grade 2 maculopapular rash requiring study interruption” value (DEP dose level 4 (24 mg QD)) was “All patients”, the “Adverse drug reactions: ALT increased” value (All grade) was 1 (8.3) n (%) and the “Adverse drug reactions: AST increased” value (All grade) was 1 (8.3) n (%). The “Adverse drug reactions: Any events” value (All grade) was 11 (91.7) n (%), the “Adverse drug reactions: Blood AP increased” value (All grade) was 1 (8.3) n (%) and the “Adverse drug reactions: Decreased appetite” value (All grade) was 2 (16.7) n (%). The “Adverse drug reactions: Diarrhea” value (All grade) was 1 (8.3) n (%), the “Adverse drug reactions: Dry skin” value (All grade) was 0 (0.0) n (%) and the “Adverse drug reactions: GGT increased” value (All grade) was 1 (8.3) n (%). For the same molecule, the “Adverse drug reactions: GI disorders” value (All grade) was 4 (33.3) n (%), the “Adverse drug reactions: General disorders and administration site conditions” value (All grade) was 2 (16.7) n (%) and the “Adverse drug reactions: Hyperglycemia” value (All grade) was 4 (33.3) n (%). For the same molecule, the “Adverse drug reactions: Investigations” value (All grade) was 5 (41.7) n (%), the “Adverse drug reactions: Metabolism and nutrition disorders” value (All grade) was 5 (41.7) n (%) and the “Adverse drug reactions: Nausea” value (All grade) was 1 (8.3) n (%). For the same molecule, the “Adverse drug reactions: Neutrophil count decreased” value (All grade) was 3 (25.0) n (%), the “Adverse drug reactions: Pruritus” value (All grade) was 1 (8.3) n (%) and the “Adverse drug reactions: Pyrexia” value (All grade) was 1 (8.3) n (%). The “Adverse drug reactions: Rash maculo-papular” value (All grade) was 9 (75.0) n (%), the “Adverse drug reactions: Skin and SC tissue disorders” value (All grade) was 11 (91.7) n (%) and the “Adverse drug reactions: Stomatitis” value (All grade) was 3 (25.0) n (%). For the same molecule, the “Adverse drug reactions: Vomiting” value (All grade) was 2 (16.7) n (%), the “Adverse drug reactions: WBC count decreased” value (All grade) was 3 (25.0) n (%) and the “Adverse events: ALT increased” value (All grade) was 3 (25.0) n (%). The “Adverse events: AST increased” value (All grade) was 3 (25.0) n (%), the “Adverse events: Any events” value (All grade) was 11 (91.7) n (%) and the “Adverse events: Blood AP increased” value (All grade) was 2 (16.7) n (%). The “Adverse events: Decreased appetite” value (All grade) was 5 (41.7) n (%), the “Adverse events: Diarrhea” value (All grade) was 3 (25.0) n (%) and the “Adverse events: Dry skin” value (All grade) was 0 (0.0) n (%). For the same molecule, the “Adverse events: GGT increased” value (All grade) was 2 (16.7) n (%), the “Adverse events: GI disorders” value (All grade) was 7 (58.3) n (%) and the “Adverse events: General disorders and administration site conditions” value (All grade) was 5 (41.7) n (%). For the same molecule, the “Adverse events: Hyperglycemia” value (All grade) was 4 (33.3) n (%), the “Adverse events: Investigations” value (All grade) was 6 (50.0) n (%) and the “Adverse events: Metabolism and nutrition disorders” value (All grade) was 9 (75.0) n (%). For the same molecule, the “Adverse events: Nausea” value (All grade) was 2 (16.7) n (%), the “Adverse events: Neutrophil count decreased” value (All grade) was 3 (25.0) n (%) and the “Adverse events: Pruritus” value (All grade) was 1 (8.3) n (%). For the same molecule, the “Adverse events: Pyrexia” value (All grade) was 1 (8.3) n (%), the “Adverse events: Rash maculo-papular” value (All grade) was 9 (75.0) n (%) and the “Adverse events: Skin and SC tissue disorders” value (All grade) was 11 (91.7) n (%). For the same molecule, the “Adverse events: Stomatitis” value (All grade) was 3 (25.0) n (%), the “Adverse events: Vomiting” value (All grade) was 3 (25.0) n (%) and the “Adverse events: WBC count decreased” value (All grade) was 3 (25.0) n (%). The “Adverse drug reactions: ALT increased” value (≥ Grade 3) was 0 (0.0) n (%), the “Adverse drug reactions: AST increased” value (≥ Grade 3) was 0 (0.0) n (%) and the “Adverse drug reactions: Any events” value (≥ Grade 3) was 3 (25.0) n (%). The “Adverse drug reactions: Blood AP increased” value (≥ Grade 3) was 0 (0.0) n (%), the “Adverse drug reactions: Decreased appetite” value (≥ Grade 3) was 0 (0.0) n (%) and the “Adverse drug reactions: Diarrhea” value (≥ Grade 3) was 0 (0.0) n (%). For the same molecule, the “Adverse drug reactions: Dry skin” value (≥ Grade 3) was 0 (0.0) n (%), the “Adverse drug reactions: GGT increased” value (≥ Grade 3) was 0 (0.0) n (%) and the “Adverse drug reactions: GI disorders” value (≥ Grade 3) was 0 (0.0) n (%). For the same molecule, the “Adverse drug reactions: General disorders and administration site conditions” value (≥ Grade 3) was 0 (0.0) n (%), the “Adverse drug reactions: Hyperglycemia” value (≥ Grade 3) was 2 (16.7) n (%) and the “Adverse drug reactions: Investigations” value (≥ Grade 3) was 1 (8.3) n (%). For the same molecule, the “Adverse drug reactions: Metabolism and nutrition disorders” value (≥ Grade 3) was 2 (16.7) n (%), the “Adverse drug reactions: Nausea” value (≥ Grade 3) was 0 (0.0) n (%) and the “Adverse drug reactions: Neutrophil count decreased” value (≥ Grade 3) was 0 (0.0) n (%). For the same molecule, the “Adverse drug reactions: Pruritus” value (≥ Grade 3) was 0 (0.0) n (%), the “Adverse drug reactions: Pyrexia” value (≥ Grade 3) was 0 (0.0) n (%) and the “Adverse drug reactions: Rash maculo-papular” value (≥ Grade 3) was 0 (0.0) n (%). The “Adverse drug reactions: Skin and SC tissue disorders” value (≥ Grade 3) was 0 (0.0) n (%), the “Adverse drug reactions: Stomatitis” value (≥ Grade 3) was 0 (0.0) n (%) and the “Adverse drug reactions: Vomiting” value (≥ Grade 3) was 0 (0.0) n (%). The “Adverse drug reactions: WBC count decreased” value (≥ Grade 3) was 1 (8.3) n (%), the “Adverse events: ALT increased” value (≥ Grade 3) was 0 (0.0) n (%) and the “Adverse events: AST increased” value (≥ Grade 3) was 1 (8.3) n (%). The “Adverse events: Any events” value (≥ Grade 3) was 3 (25.0) n (%), the “Adverse events: Blood AP increased” value (≥ Grade 3) was 1 (8.3) n (%) and the “Adverse events: Decreased appetite” value (≥ Grade 3) was 0 (0.0) n (%). The “Adverse events: Diarrhea” value (≥ Grade 3) was 0 (0.0) n (%), the “Adverse events: Dry skin” value (≥ Grade 3) was 0 (0.0) n (%) and the “Adverse events: GGT increased” value (≥ Grade 3) was 1 (8.3) n (%). The “Adverse events: GI disorders” value (≥ Grade 3) was 0 (0.0) n (%), the “Adverse events: General disorders and administration site conditions” value (≥ Grade 3) was 0 (0.0) n (%) and the “Adverse events: Hyperglycemia” value (≥ Grade 3) was 2 (16.7) n (%). The “Adverse events: Investigations” value (≥ Grade 3) was 3 (25.0) n (%), the “Adverse events: Metabolism and nutrition disorders” value (≥ Grade 3) was 2 (16.7) n (%) and the “Adverse events: Nausea” value (≥ Grade 3) was 0 (0.0) n (%). For the same molecule, the “Adverse events: Neutrophil count decreased” value (≥ Grade 3) was 0 (0.0) n (%), the “Adverse events: Pruritus” value (≥ Grade 3) was 0 (0.0) n (%) and the “Adverse events: Pyrexia” value (≥ Grade 3) was 0 (0.0) n (%). The “Adverse events: Rash maculo-papular” value (≥ Grade 3) was 0 (0.0) n (%), the “Adverse events: Skin and SC tissue disorders” value (≥ Grade 3) was 0 (0.0) n (%) and the “Adverse events: Stomatitis” value (≥ Grade 3) was 0 (0.0) n (%). For the same molecule, the “Adverse events: Vomiting” value (≥ Grade 3) was 0 (0.0) n (%), the “Adverse events: WBC count decreased” value (≥ Grade 3) was 1 (8.3) n (%) and the “Recommended dose (RD)” value (QD dosing, patients with advanced or metastatic solid tumors) was 16 mg. The DLTs (RMP dose level 4 (24 mg), intermittent administration) was “No DLTs”.
